Measured values published in PubChem BioAssay (NCI).
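Cultured in 96-well plates, cells were exposed to test compound for 48 hours across five concentrations. TGI marks complete inhibition of growth.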

system: DU-145 prostate; assay: growth of human tumour cells (NCI), 48 h

SMILES | TGI [µM]
O=[N+]([O-])c1ccc(-c2nn3c(C45CC6CC(CC(C6)C4)C5)nnc3s2)c(Cl)c1 | > 100
O=C(Cn1c2ccc(Br)cc2c2nc3ccccc3nc21)Nc1ccccc1 | > 100
Cc1cc(O)c(/C=N/C(=S)Nc2ccc(S(N)(=O)=O)cc2)c(=O)o1 | > 100
CC(=O)[C@H]1[C@H](O)C[C@@]2(C)[C@@H]3CCc4cc(O)c(OC5OC(CO)C(O)C(O)C5O)cc4C3(C)C(=O)C[C@]12C (some centres not stated) | > 100
COC(=O)[C@@](NC(=O)OCc1ccccc1)([C@H](C)O)C(F)(F)F | > 100
O=c1[nH][nH]c(=O)c2c1ccc1oc3ccccc3c12 | > 100
COc1cc(OC)c2c(=O)c3cccc(C)c3n(C)c2c1 | > 100
COC(=O)C(=O)C(C(=O)C(=O)Nc1ccc(C)cc1C)c1nc2ccc(Cl)cc2[nH]c1=O (configuration not stated) | > 100
CC1=CCC(C(C)(C)NC(=O)c2ccccc2)C/C1=N/O (configuration not stated) | > 100
Cc1c(/C=N/NC(=S)N2CCCCC2)c(=O)n(-c2ccccc2)n1C | > 100
CCSC1=N/C(=C\c2ccco2)C(=O)N1 | > 100
COc1ccc(-c2nc(Nc3ccccc3)sc2Cc2sc(Nc3ccccc3)nc2-c2ccc(OC)cc2)cc1 | > 100
C[C@@H]1CC[C@@H]2[C@@H](C1)O[C@@H]([C@@H](C)OCc1ccccc1)SC2(C)C | > 100
Cc1sc2nc3n(c(=O)c2c1C)N=CN(c1ccc(Cl)cc1)C3 | > 100
COc1cc(C2c3cc4c(cc3C(=O)C3CCC(=O)N32)OCO4)cc(OC)c1O (configuration not stated) | > 50

system: HOP-92 NSCLC; assay: growth of human tumour cells (NCI), 48 h

SMILES | TGI [µM]
CCOC(=O)C1=C(OC(OCC)C(CC)[Se]c2ccccc2)CCC1 (configuration not stated) | 45.8
CCCc1cc(OC(=O)c2c(O)cc(OC)cc2CCC)cc(O)c1C(=O)O | 39
Cc1ccc(-c2cc(-c3ccccc3)c(C#N)c(=O)[nH]2)cc1 | > 100
O=[N+]([O-])c1ccc(-c2nn3c(C45CC6CC(CC(C6)C4)C5)nnc3s2)c(Cl)c1 | > 100
O=C(Cn1c2ccc(Br)cc2c2nc3ccccc3nc21)Nc1ccccc1 | 32.4
Cc1cc(O)c(/C=N/C(=S)Nc2ccc(S(N)(=O)=O)cc2)c(=O)o1 | > 100
COc1ccc(-c2nc(-c3cnccn3)n(C3OC(CO)C(O)C3O)n2)cc1 (configuration not stated) | > 10
CC(=O)[C@H]1[C@H](O)C[C@@]2(C)[C@@H]3CCc4cc(O)c(OC5OC(CO)C(O)C(O)C5O)cc4C3(C)C(=O)C[C@]12C (some centres not stated) | > 100
O=C(NCCN1CCCCC1)c1cccc(I)c1 | > 100
COC(=O)[C@@](NC(=O)OCc1ccccc1)([C@H](C)O)C(F)(F)F | > 100
CO/C(=N\N=C\c1ccc(Cl)c(Cl)c1)c1ccncc1 | > 10
O=c1[nH][nH]c(=O)c2c1ccc1oc3ccccc3c12 | > 100
C=C1C2=C(CCCC2)C(=O)OC12CCCCC2 | 77.9
COc1cc(OC)c2c(=O)c3cccc(C)c3n(C)c2c1 | > 100
COC(=O)C(=O)C(C(=O)C(=O)Nc1ccc(C)cc1C)c1nc2ccc(Cl)cc2[nH]c1=O (configuration not stated) | > 100
CC1=CCC(C(C)(C)NC(=O)c2ccccc2)C/C1=N/O (configuration not stated) | > 100
Cc1c(/C=N/NC(=S)N2CCCCC2)c(=O)n(-c2ccccc2)n1C | > 100
CCSC1=N/C(=C\c2ccco2)C(=O)N1 | > 100
CCOC(=O)CCC(NC(=O)c1ccc(NC(OC)c2nc3cc(C(F)(F)F)ccc3nc2-c2ccccc2)cc1)C(=O)OCC (configuration not stated) | 30.3
CCCCOC/N=C(/N)NC#N | > 100
Cc1sc2nc3n(c(=O)c2c1C)N=CN(c1ccc(Cl)cc1)C3 | > 100
COc1ccc2[nH]c3c(c2c1)[C@H]1CCC(C(C)(C)C)C[C@H]1[C@H]1C(=O)N(c2ccccc2)C(=O)[C@@H]31 (some centres not stated) | 21
COc1cc(C2c3cc4c(cc3C(=O)C3CCC(=O)N32)OCO4)cc(OC)c1O (configuration not stated) | > 50

system: HCC-2998 colon; assay: growth of human tumour cells (NCI), 48 h

SMILES | TGI [µM]
CCOC(=O)C1=C(OC(OCC)C(CC)[Se]c2ccccc2)CCC1 (configuration not stated) | > 100
CCCc1cc(OC(=O)c2c(O)cc(OC)cc2CCC)cc(O)c1C(=O)O | 66.2
Cc1ccc(-c2cc(-c3ccccc3)c(C#N)c(=O)[nH]2)cc1 | > 100
O=[N+]([O-])c1ccc(-c2nn3c(C45CC6CC(CC(C6)C4)C5)nnc3s2)c(Cl)c1 | > 100
O=[N+]([O-])c1cccc(Nc2nc(Cl)nc(Cl)n2)c1 | > 100
O=C(Cn1c2ccc(Br)cc2c2nc3ccccc3nc21)Nc1ccccc1 | > 100
Cc1cc(O)c(/C=N/C(=S)Nc2ccc(S(N)(=O)=O)cc2)c(=O)o1 | > 100
COc1ccc(-c2nc(-c3cnccn3)n(C3OC(CO)C(O)C3O)n2)cc1 (configuration not stated) | > 10
CC(=O)[C@H]1[C@H](O)C[C@@]2(C)[C@@H]3CCc4cc(O)c(OC5OC(CO)C(O)C(O)C5O)cc4C3(C)C(=O)C[C@]12C (some centres not stated) | > 100
O=C(NCCN1CCCCC1)c1cccc(I)c1 | > 100
COC(=O)[C@@](NC(=O)OCc1ccccc1)([C@H](C)O)C(F)(F)F | > 100
CO/C(=N\N=C\c1ccc(Cl)c(Cl)c1)c1ccncc1 | > 10
O=c1[nH][nH]c(=O)c2c1ccc1oc3ccccc3c12 | > 100
COC(=O)/C=C(\C)CCC1SC1(C)C (configuration not stated) | > 100
C=C1C2=C(CCCC2)C(=O)OC12CCCCC2 | > 100
COc1cc(OC)c2c(=O)c3cccc(C)c3n(C)c2c1 | > 100
COC(=O)C(=O)C(C(=O)C(=O)Nc1ccc(C)cc1C)c1nc2ccc(Cl)cc2[nH]c1=O (configuration not stated) | > 100
CC1=CCC(C(C)(C)NC(=O)c2ccccc2)C/C1=N/O (configuration not stated) | > 100
Cc1c(/C=N/NC(=S)N2CCCCC2)c(=O)n(-c2ccccc2)n1C | > 100
COc1ccc(-c2nc(Nc3ccccc3)sc2Cc2sc(Nc3ccccc3)nc2-c2ccc(OC)cc2)cc1 | > 100
CCOC(=O)CCC(NC(=O)c1ccc(NC(OC)c2nc3cc(C(F)(F)F)ccc3nc2-c2ccccc2)cc1)C(=O)OCC (configuration not stated) | 30
CCCCOC/N=C(/N)NC#N | > 100
C[C@@H]1CC[C@@H]2[C@@H](C1)O[C@@H]([C@@H](C)OCc1ccccc1)SC2(C)C | 33.7
Cc1sc2nc3n(c(=O)c2c1C)N=CN(c1ccc(Cl)cc1)C3 | > 100
COc1ccc2[nH]c3c(c2c1)[C@H]1CCC(C(C)(C)C)C[C@H]1[C@H]1C(=O)N(c2ccccc2)C(=O)[C@@H]31 (some centres not stated) | > 100

system: OVCAR-8 ovarian; assay: growth of human tumour cells (NCI), 48 h

SMILES | TGI [µM]
CCOC(=O)C1=C(OC(OCC)C(CC)[Se]c2ccccc2)CCC1 (configuration not stated) | > 100
CCCc1cc(OC(=O)c2c(O)cc(OC)cc2CCC)cc(O)c1C(=O)O | > 100
Cc1ccc(-c2cc(-c3ccccc3)c(C#N)c(=O)[nH]2)cc1 | > 100
O=[N+]([O-])c1ccc(-c2nn3c(C45CC6CC(CC(C6)C4)C5)nnc3s2)c(Cl)c1 | > 100
O=[N+]([O-])c1cccc(Nc2nc(Cl)nc(Cl)n2)c1 | > 100
CC(Cn1c2c(c3cc(O)ccc31)CCc1ccc(O)cc1-2)N(C)C (configuration not stated) | 33.2
O=C(Cn1c2ccc(Br)cc2c2nc3ccccc3nc21)Nc1ccccc1 | 28.4
Cc1cc(O)c(/C=N/C(=S)Nc2ccc(S(N)(=O)=O)cc2)c(=O)o1 | > 100
COc1ccc(-c2nc(-c3cnccn3)n(C3OC(CO)C(O)C3O)n2)cc1 (configuration not stated) | > 10
CC(=O)[C@H]1[C@H](O)C[C@@]2(C)[C@@H]3CCc4cc(O)c(OC5OC(CO)C(O)C(O)C5O)cc4C3(C)C(=O)C[C@]12C (some centres not stated) | > 100
O=C(NCCN1CCCCC1)c1cccc(I)c1 | > 100
COC(=O)[C@@](NC(=O)OCc1ccccc1)([C@H](C)O)C(F)(F)F | > 100
CO/C(=N\N=C\c1ccc(Cl)c(Cl)c1)c1ccncc1 | > 10
O=c1[nH][nH]c(=O)c2c1ccc1oc3ccccc3c12 | > 100
COC(=O)/C=C(\C)CCC1SC1(C)C (configuration not stated) | > 100
C=C1C2=C(CCCC2)C(=O)OC12CCCCC2 | > 100
COc1cc(OC)c2c(=O)c3cccc(C)c3n(C)c2c1 | > 100
COC(=O)C(=O)C(C(=O)C(=O)Nc1ccc(C)cc1C)c1nc2ccc(Cl)cc2[nH]c1=O (configuration not stated) | > 100
CC1=CCC(C(C)(C)NC(=O)c2ccccc2)C/C1=N/O (configuration not stated) | > 100
Cc1c(/C=N/NC(=S)N2CCCCC2)c(=O)n(-c2ccccc2)n1C | > 100
CCSC1=N/C(=C\c2ccco2)C(=O)N1 | > 100
COc1ccc(-c2nc(Nc3ccccc3)sc2Cc2sc(Nc3ccccc3)nc2-c2ccc(OC)cc2)cc1 | > 100
CCOC(=O)CCC(NC(=O)c1ccc(NC(OC)c2nc3cc(C(F)(F)F)ccc3nc2-c2ccccc2)cc1)C(=O)OCC (configuration not stated) | 29.6
CCCCOC/N=C(/N)NC#N | > 100
C[C@@H]1CC[C@@H]2[C@@H](C1)O[C@@H]([C@@H](C)OCc1ccccc1)SC2(C)C | 58.8
Cc1sc2nc3n(c(=O)c2c1C)N=CN(c1ccc(Cl)cc1)C3 | > 100
COc1ccc2[nH]c3c(c2c1)[C@H]1CCC(C(C)(C)C)C[C@H]1[C@H]1C(=O)N(c2ccccc2)C(=O)[C@@H]31 (some centres not stated) | 28.1
COc1cc(C2c3cc4c(cc3C(=O)C3CCC(=O)N32)OCO4)cc(OC)c1O (configuration not stated) | > 50

system: OVCAR-4 ovarian; assay: growth of human tumour cells (NCI), 48 h

SMILES | TGI [µM]
CCOC(=O)C1=C(OC(OCC)C(CC)[Se]c2ccccc2)CCC1 (configuration not stated) | 28
Cc1ccc(-c2cc(-c3ccccc3)c(C#N)c(=O)[nH]2)cc1 | > 100
O=[N+]([O-])c1ccc(-c2nn3c(C45CC6CC(CC(C6)C4)C5)nnc3s2)c(Cl)c1 | > 100
O=[N+]([O-])c1cccc(Nc2nc(Cl)nc(Cl)n2)c1 | > 100
O=C(Cn1c2ccc(Br)cc2c2nc3ccccc3nc21)Nc1ccccc1 | 99.4
Cc1cc(O)c(/C=N/C(=S)Nc2ccc(S(N)(=O)=O)cc2)c(=O)o1 | > 100
COc1ccc(-c2nc(-c3cnccn3)n(C3OC(CO)C(O)C3O)n2)cc1 (configuration not stated) | > 10
CC(=O)[C@H]1[C@H](O)C[C@@]2(C)[C@@H]3CCc4cc(O)c(OC5OC(CO)C(O)C(O)C5O)cc4C3(C)C(=O)C[C@]12C (some centres not stated) | > 100
O=C(NCCN1CCCCC1)c1cccc(I)c1 | > 100
COC(=O)[C@@](NC(=O)OCc1ccccc1)([C@H](C)O)C(F)(F)F | > 100
O=c1[nH][nH]c(=O)c2c1ccc1oc3ccccc3c12 | > 100
COC(=O)/C=C(\C)CCC1SC1(C)C (configuration not stated) | > 100
C=C1C2=C(CCCC2)C(=O)OC12CCCCC2 | > 100
COc1cc(OC)c2c(=O)c3cccc(C)c3n(C)c2c1 | > 100
COC(=O)C(=O)C(C(=O)C(=O)Nc1ccc(C)cc1C)c1nc2ccc(Cl)cc2[nH]c1=O (configuration not stated) | > 100
CC1=CCC(C(C)(C)NC(=O)c2ccccc2)C/C1=N/O (configuration not stated) | > 100
COc1ccc(-c2nc(Nc3ccccc3)sc2Cc2sc(Nc3ccccc3)nc2-c2ccc(OC)cc2)cc1 | > 100
CCOC(=O)CCC(NC(=O)c1ccc(NC(OC)c2nc3cc(C(F)(F)F)ccc3nc2-c2ccccc2)cc1)C(=O)OCC (configuration not stated) | 55.1
CCCCOC/N=C(/N)NC#N | > 100
C[C@@H]1CC[C@@H]2[C@@H](C1)O[C@@H]([C@@H](C)OCc1ccccc1)SC2(C)C | 69.7
Cc1sc2nc3n(c(=O)c2c1C)N=CN(c1ccc(Cl)cc1)C3 | > 100
